According to patent publication US12655116B2, “Substituted isophthalic acid diamides” (Bayer Aktiengesellschaft, priority 2020, dated 2026):

Columns and labels:
[1] = tested on: ABUTH; experiment: Pre-emergence herbicidal action against ABUTH; assay type: in vivo, Abutilon theophrasti
Method in brief: (§1)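 Pre-emergence soil-surface spray of formulated compound (WP or EC; 600 to 800 l/ha; 0.2% wetting agent) over seeds sown in sandy loam. After 3 weeks under greenhouse conditions, damage is estimated visually in percent against untreated plants.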

[2] = tested on: VERPE; experiment: Post-emergence herbicidal action against VERPE; assay type: in vivo, Veronica persica; settings: Veronica persica, 504 h
Method in brief: (§2)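 Spray, one-leaf stage: WP or EC compound in water, 600–800 l/ha, 0.2% wetting agent. Plants held about 3 weeks in the greenhouse, then visually rated in percent of kill compared with untreated controls.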

[3] = tested on: ECHCG; experiment: Post-emergence herbicidal action against ECHCG; assay type: in vivo, Echinochloa crus-galli
Method in brief: as §2

[4] = tested on: MATIN; experiment: Pre-emergence herbicidal action against MATIN; assay type: in vivo, Matricaria inodora
Method in brief: as §1

[5] = tested on: AMARE; experiment: Pre-emergence herbicidal action against AMARE; assay type: in vivo, Amaranthus retroflexus
Method in brief: as §1

[6] = tested on: POLCO; experiment: Pre-emergence herbicidal action against POLCO; assay type: in vivo, Polygonum convolvulus; settings: dosage 80 g/ha
Method in brief: as §1

[7] = tested on: PHBPU; experiment: Post-emergence herbicidal action against PHBPU; assay type: in vivo, Pharbitis purpurea
Method in brief: as §2

[8] = tested on: VERPE; experiment: Pre-emergence herbicidal action against VERPE; assay type: in vivo, Veronica persica; settings: Veronica persica, 504 h, dosage 80 g/ha
Method in brief: as §1

[9] = tested on: SETVI; experiment: Pre-emergence herbicidal action against SETVI; assay type: in vivo, Setaria viridis
Method in brief: as §1

[10] = tested on: SETVI; experiment: Post-emergence herbicidal action against SETVI; assay type: in vivo, Setaria viridis; settings: Setaria viridis, 504 h
Method in brief: as §2

[11] = tested on: MATIN; experiment: Post-emergence herbicidal action against MATIN; assay type: in vivo, Matricaria inodora; settings: Tripleurospermum inodorum, 504 h
Method in brief: as §2

[12] = tested on: ALOMY; experiment: Pre-emergence herbicidal action against ALOMY; assay type: in vivo, Alopecurus myosuroides; settings: 80 g/ha, pre-emergence, scored visually after 3 weeks vs untreated controls (100% = plants have died, 0% = like control plants)
Method in brief: as §1

[13] = tested on: VIOTR; experiment: Post-emergence herbicidal action against VIOTR; assay type: in vivo, Viola tricolor
Method in brief: as §2

[14] = tested on: ECHCG; experiment: Pre-emergence herbicidal action against ECHCG; assay type: in vivo, Echinochloa crus-galli; settings: 80 g/ha
Method in brief: as §1

[15] = tested on: ABUTH; experiment: Post-emergence herbicidal action against ABUTH; assay type: in vivo, Abutilon theophrasti; settings: visual assessment about 3 weeks after treatment vs untreated controls
Method in brief: as §2

[16] = tested on: VIOTR; experiment: Pre-emergence herbicidal action against VIOTR; assay type: in vivo, Viola tricolor
Method in brief: as §1

[17] = tested on: AVEFA; experiment: Pre-emergence herbicidal action against AVEFA; assay type: in vivo, Avena fatua; settings: Avena fatua, 504 h, pre-emergence
Method in brief: as §1

[18] = tested on: AMARE; experiment: Post-emergence herbicidal action against AMARE; assay type: in vivo, Amaranthus retroflexus; settings: 20 g/ha, visual assessment about 3 weeks after treatment, 100% = plants have died, 0% = like control plants
Method in brief: as §2

[19] = tested on: ALOMY; experiment: Post-emergence herbicidal action against ALOMY; assay type: in vivo, Alopecurus myosuroides; settings: Alopecurus myosuroides, 504 h, visual assessment about 3 weeks after treatment vs untreated controls
Method in brief: as §2

[20] = tested on: PHBPU; experiment: Pre-emergence herbicidal action against PHBPU; assay type: in vivo, Pharbitis purpurea; settings: dosage 80 g/ha
Method in brief: as §1

[21] = tested on: DIGSA; experiment: Pre-emergence herbicidal action against DIGSA; assay type: in vivo, Digitaria sanguinalis
Method in brief: as §1

[22] = 20 g/ha, scored visually after 3 weeks vs untreated controls, 100% = plants have died, 0% = like control plants
[23] = 80 g/ha, scored visually after 3 weeks vs untreated controls (100% = plants have died, 0% = like control plants)

Work on Cc1c(C(=O)Nc2nnnn2C)ccc(C(F)F)c1C(=O)NC(C)C [Example 1-346] yielded a pest or weed control at 80 g/ha ([1]; Abutilon theophrasti, 504 h, 80 g/ha, scored visually after 3 weeks vs untreated controls (100% = plants have died, 0% = like control plants)) of 100%, a pest or weed control at 20 g/ha ([1]; Abutilon theophrasti, 504 h, dosage 20 g/ha, scored visually after 3 weeks vs untreated controls, 100% = plants have died, 0% = like control plants, read-out: Pre-emergence action against ABUTH (herbicidal activity in percent)) of 90% and a pest or weed control at 5 g/ha ([2]; 5 g/ha) of 80%. It also gave a pest or weed control at 20 g/ha ([2]; 20 g/ha) of 80%, a pest or weed control at 5 g/ha ([3]; Echinochloa crus-galli, 504 h, dosage 5 g/ha) of 80% and a pest or weed control at 20 g/ha ([3]; Echinochloa crus-galli, 504 h, dosage 20 g/ha) of 90%. The pest or weed control at 20 g/ha ([4]; Tripleurospermum inodorum, 504 h, dosage 20 g/ha) was 90%, the pest or weed control at 80 g/ha ([4]; Tripleurospermum inodorum, 504 h, dosage 80 g/ha) was 100% and the pest or weed control at 20 g/ha ([5]; Amaranthus retroflexus, 504 h, 20 g/ha, scored visually after 3 weeks vs untreated controls, 100% = plants have died, 0% = like control plants) was 100%. It also gave a pest or weed control at 80 g/ha ([5]; Amaranthus retroflexus, 504 h, 80 g/ha, scored visually after 3 weeks vs untreated controls, 100% = plants have died, 0% = like control plants) of 100%, a pest or weed control at 80 g/ha ([6]; Fallopia convolvulus, 504 h) of 80% and a pest or weed control at 5 g/ha ([7]; Ipomoea purpurea, 504 h, dosage 5 g/ha) of 80%. It also gave a pest or weed control at 20 g/ha ([7]; Ipomoea purpurea, 504 h, dosage 20 g/ha) of 90%, a pest or weed control at 80 g/ha [8] of 80% and a pest or weed control at 20 g/ha ([9]; Setaria viridis, 504 h, dosage 20 g/ha) of 100%. For the same molecule, the pest or weed control at 80 g/ha ([9]; Setaria viridis, 504 h, dosage 80 g/ha) was 100%, the pest or weed control at 5 g/ha ([10]; dosage 5 g/ha) was 100% and the pest or weed control at 20 g/ha ([10]; dosage 20 g/ha) was 100%. For the same molecule, the pest or weed control at 5 g/ha ([11]; dosage 5 g/ha) was 80%, the pest or weed control at 20 g/ha ([11]; dosage 20 g/ha) was 90% and the pest or weed control at 80 g/ha ([12]; Alopecurus myosuroides, 504 h) was 90%. The pest or weed control at 5 g/ha ([13]; Viola tricolor, 504 h, 5 g/ha) was 90%, the pest or weed control at 20 g/ha ([13]; Viola tricolor, 504 h, 20 g/ha) was 100% and the pest or weed control at 80 g/ha ([14]; Echinochloa crus-galli, 504 h) was 90%. The pest or weed control at 5 g/ha ([15]; Abutilon theophrasti, 504 h, dosage 5 g/ha) was 80%, the pest or weed control at 20 g/ha ([15]; Abutilon theophrasti, 504 h, dosage 20 g/ha) was 100% and the pest or weed control at 20 g/ha ([16]; Viola tricolor, 504 h, dosage 20 g/ha) was 80%. It also gave a pest or weed control at 80 g/ha ([16]; Viola tricolor, 504 h, dosage 80 g/ha) of 100%, a pest or weed control at 80 g/ha ([17]; 80 g/ha) of 80% and a pest or weed control at 20 g/ha ([17]; 20 g/ha, scored visually after 3 weeks, 100% = plants have died, 0% = like control plants) of 80%. It also gave a pest or weed control at 20 g/ha ([18]; Amaranthus retroflexus, 504 h) of 100%, a pest or weed control at 5 g/ha ([19]; dosage 5 g/ha) of 80% and a pest or weed control at 20 g/ha ([19]; dosage 20 g/ha) of 90%.

For CCn1nnnc1NC(=O)c1ccc(C(F)(F)F)c(C(=O)NCC2CCCO2)c1Cl (stereo not shown) [Example 2-141], the “Post-emergence action against ECHCG in %” value ([3]; dosage 20 g/ha) was 80%, the “Pre-emergence action against MATIN in %” value ([4]; dosage 20 g/ha) was 80% and the “Pre-emergence action against MATIN in %” value ([4]; dosage 80 g/ha) was 90%. The “Pre-emergence action against AMARE in %” value [5, 22] was 100%, the “Pre-emergence action against AMARE in %” value [5, 23] was 100% and the “Pre-emergence action against POLCO in %” value [6] was 80%. For the same molecule, the “Post-emergence action against PHBPU in %” value ([7]; dosage 20 g/ha) was 80%, the “Pre-emergence action against SETVI in %” value ([9]; dosage 20 g/ha) was 90% and the “Pre-emergence action against SETVI in %” value ([9]; dosage 80 g/ha) was 100%. The “Pre-emergence action against PHBPU in %” value [20] was 80%, the “Pre-emergence action against ALOMY (herbicidal activity)” value [12] was 90% and the “Pre-emergence action against ECHCG in %” value [14] was 80%. For the same molecule, the “Pre-emergence action against VIOTR in %” value ([16]; dosage 80 g/ha) was 90%, the “Pre-emergence action against DIGSA in %” value ([21]; dosage 80 g/ha) was 90% and the “Post-emergence action at 20 g/ha against AMARE in %” value [18] was 80%.

With Cn1nnnc1NC(=O)c1ccc(C(F)(F)F)c(C(=O)NC2CCC2)c1Cl [Example 1-146] the “Pre-emergence action against ABUTH (herbicidal activity)” value [1, 23] was 100%, the “Pre-emergence action against ABUTH (herbicidal activity in percent)” value ([1]; dosage 20 g/ha, scored visually after 3 weeks vs untreated controls, 100% = plants have died, 0% = like control plants) was 100% and the “Post-emergence action against ECHCG in %” value ([3]; dosage 20 g/ha) was 80%. The “Pre-emergence action against MATIN in %” value ([4]; dosage 20 g/ha) was 100%, the “Pre-emergence action against MATIN in %” value ([4]; dosage 80 g/ha) was 100% and the “Pre-emergence action against AMARE in %” value [5, 22] was 100%. For the same molecule, the “Pre-emergence action against AMARE in %” value [5, 23] was 100%, the “Pre-emergence action against POLCO in %” value [6] was 80% and the “Pre-emergence action against SETVI in %” value ([9]; dosage 80 g/ha) was 80%. For the same molecule, the “Pre-emergence action against PHBPU in %” value [20] was 80%, the “Pre-emergence action against ALOMY (herbicidal activity)” value [12] was 90% and the “Post-emergence action against VIOTR in %” value ([13]; 5 g/ha) was 80%. The “Post-emergence action against VIOTR in %” value ([13]; 20 g/ha) was 100%, the “Pre-emergence action against ECHCG in %” value [14] was 100% and the “Post-emergence action against ABUTH in %” value ([15]; dosage 20 g/ha) was 80%. The “Pre-emergence action against VIOTR in %” value ([16]; dosage 80 g/ha) was 100%, the “Pre-emergence action against DIGSA in %” value ([21]; dosage 20 g/ha) was 100% and the “Pre-emergence action against DIGSA in %” value ([21]; dosage 80 g/ha) was 100%. The “Post-emergence action at 20 g/ha against AMARE in %” value [18] was 100%.
